Assay results as given in ChEMBL document CHEMBL4680202, “Development, synthesis and biological investigation of a novel class of potent PC-PLC inhibitors” (Eur J Med Chem, 2020).

Legend:
Bacillus cereus = experiment: Inhibition of Bacillus cereus PC-PLC assessed as residual activity at 10 uM using phosphatidylcholine as substrate measured after 1 hr by horseradish peroxidase/alkaline phosphatase/choline oxidase-coupled amplex red reagent based fluorescence assay relative to control
[1] = Inhibition of Bacillus cereus PC-PLC using phosphatidylcholine as substrate measured after 1 hr by horseradish peroxidase/alkaline phosphatase/choline oxidase-coupled amplex red reagent based fluorescence assay
MDA-MB-231 = experiment: Cytotoxicity against human MDA-MB-231 cells assessed as reduction in cell proliferation measured at 50 ug/ml measured after 48 to 72 hrs by trypan blue exclusion assay relative to control; type: functional; set-up: scale not given: the % may be the effect or the level left; details: dose 50 µg/ml; time 48-72 hrs

Row | SMILES | Activity (Bacillus cereus) [%] | IC50 [1] [µM] | Activity (MDA-MB-231) [%] | Ki [1] [µM]
1 | O=C(O)c1cc(NCc2cccc(Cl)c2)ccc1N1CCOCC1 | 10.7 | 3.6 |  | 
2 | Fc1ccccc1CNc1ccc(N2CCOCC2)cc1 | 0 | 1.06 |  | 
3 | S=C([S-])OC1CC2CC1C1CCCC21.[K+] (centres undefined) | 40.3 | 8.08 | 60 | 6.4
4 | Brc1ccccc1CNc1ccc(N2CCNCC2)cc1 | 26.8 |  |  | 
